Measured values as given in the NIST ThermoML archive (doi:10.1016/j.jct.2012.01.013).

Assay: xn = mol fraction of the nth substance listed
Conditions: 101 kPa, Liquid; for viscosity: Falling or rolling sphere viscometry; for mass density: Vibrating tube method

CC(=O)[O-].Cn1cc[nH+]c1 [1-methylimidazolium acetate] + CCCCO
Conditions | mass density, 293.15 K [kg/m3] | mass density, 298.15 K [kg/m3] | mass density, 303.15 K [kg/m3] | mass density, 308.15 K [kg/m3] | mass density, 313.15 K [kg/m3] | viscosity, 293.15 K [mPa·s] | viscosity, 298.15 K [mPa·s] | viscosity, 303.15 K [mPa·s] | viscosity, 308.15 K [mPa·s] | viscosity, 313.15 K [mPa·s]
x1 = 0.0506 | 828.66 | 824.7 | 820.7 | 816.68 | 812.62 | – | 2.579 | 2.208 | 1.956 | 1.741
x1 = 0.1008 | 847.12 | 843.04 | 838.93 | 834.78 | 830.61 | 2.905 | 2.607 | 2.251 | 1.997 | 1.781
x1 = 0.1979 | 880.83 | 876.62 | 872.36 | 868.1 | 863.78 | 3.194 | 2.829 | 2.462 | 2.182 | 1.944
x1 = 0.2995 | 913.82 | 909.53 | 905.18 | 900.8 | 896.49 | 3.551 | 3.124 | 2.731 | 2.419 | 2.15
x1 = 0.4002 | 943.73 | 939.37 | 934.99 | 930.59 | 926.17 | 3.934 | 3.431 | 3.011 | 2.661 | 2.367
x1 = 0.4999 | 970.97 | 966.57 | 962.15 | 957.72 | 953.27 | 4.413 | 3.813 | 3.334 | 2.922 | 2.606
x1 = 0.6505 | 1008.21 | 1003.78 | 999.34 | 994.88 | 990.41 | 5.321 | 4.556 | 3.936 | 3.447 | 3.056
x1 = 0.7977 | 1040.65 | 1036.22 | 1031.77 | 1027.33 | 1022.9 | 6.49 | 5.533 | 4.739 | 4.068 | 3.538
x1 = 0.9013 | 1061.34 | 1056.91 | 1052.46 | 1048.01 | 1043.57 | 7.367 | 6.225 | 5.314 | 4.553 | 3.944
